Experimental data taken from publication PMC7206119, “RIP1 inhibition blocks inflammatory diseases but not tumor growth or metastases” (Cell Death and Differentiation, 2019).

Assays:
Test in all cases: biochemical
[1] = target: ZAP70 (Homo sapiens, UniProt P43403); parameters: gene ZAP70; Thermo Fisher SelectScreen kinase panel: Z'-LYTE and Adapta activity, LanthaScreen binding
Method: 5 88 GNE684 was tested in Thermo Fisher Scientific SelectScreen assay (Madison, WI) 89 against 221 representative kinases at a concentration of 10 µM, which is 476-fold greater than the Ki app 90 for GNE684 against human RIP1 in the RIP1 enzyme 91 assay. The kinase assays were carried out using Z'-LYTE and Adapta activity and 92 LanthaScreen binding assays (Thermo Fisher Scientific, Madison WI) following 93 protocols developed and performed by Thermo Fisher Scientific 94 (https://www.thermofisher.com/us/en/home/products-and-services/services/custom-95 services/screening-and-profiling-services/selectscreen-profiling-service/selectscreen-96 kinase-profiling-service.html). 97 GNE684 was also tested against 468 kinases in the KINOMEscan scanMAX kinase 98 binding assay panel at a concentration of 10 µM following protocols developed and 99 performed by DiscoverX (http://www.discoverx.com/kinase_profiling).

[2] = target: CAMKK1 (Homo sapiens, UniProt Q8N5S9); parameters: Thermo Fisher SelectScreen kinase panel: Z'-LYTE and Adapta activity, LanthaScreen binding
Method in brief: (§1)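 Single-concentration panel: 10 µM GNE684 in KINOMEscan scanMAX binding (468 kinases) and in a 221-kinase panel run as Z'-LYTE/Adapta activity or LanthaScreen binding assays.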

[3] = target: T1, MSSK1 (Homo sapiens, UniProt Q9UPE1); parameters: Thermo Fisher SelectScreen kinase panel: Z'-LYTE and Adapta activity, LanthaScreen binding
T1 construct: gene SRPK3
Method in brief: as §1

[4] = target: T2, p38-delta (Homo sapiens, UniProt O15264); parameters: Thermo Fisher SelectScreen kinase panel: Z'-LYTE and Adapta activity, LanthaScreen binding
T2 construct: gene MAPK13
Method in brief: as §1

[5] = target: T3, PKA (Homo sapiens, UniProt P17612); parameters: Thermo Fisher SelectScreen kinase panel: Z'-LYTE and Adapta activity, LanthaScreen binding
T3 construct: gene PRKACA
Method in brief: as §1

[6] = target: T4, DNA-PK (Homo sapiens, UniProt P78527); parameters: Thermo Fisher SelectScreen kinase panel: Z'-LYTE and Adapta activity, LanthaScreen binding
T4 construct: gene PRKDC
Method in brief: as §1

[7] = target: T5, CK1_gamma2 (Homo sapiens, UniProt P78368); parameters: Thermo Fisher SelectScreen kinase panel: Z'-LYTE and Adapta activity, LanthaScreen binding
T5 construct: gene CSNK1G2
Method in brief: as §1

[8] = target: T6, p70S6K (Homo sapiens, UniProt P23443); parameters: Thermo Fisher SelectScreen kinase panel: Z'-LYTE and Adapta activity, LanthaScreen binding
T6 construct: gene RPS6KB1
Method in brief: as §1

[9] = target: GRK6 (Homo sapiens, UniProt P43250); parameters: Thermo Fisher SelectScreen kinase panel: Z'-LYTE and Adapta activity, LanthaScreen binding
Method in brief: as §1

[10] = target: CDK1/cyclinB (Homo sapiens, UniProt P06493); parameters: Thermo Fisher SelectScreen kinase panel: Z'-LYTE and Adapta activity, LanthaScreen binding
Method in brief: as §1

[11] = target: T7, p38-gamma (Homo sapiens, UniProt P53778); parameters: Thermo Fisher SelectScreen kinase panel: Z'-LYTE and Adapta activity, LanthaScreen binding
T7 construct: gene MAPK12
Method in brief: as §1

[12] = target: MAPKAPK3 (Homo sapiens, UniProt Q16644); parameters: Thermo Fisher SelectScreen kinase panel: Z'-LYTE and Adapta activity, LanthaScreen binding
Method in brief: as §1

[13] = target: T8, CK1_epsilon1 (Homo sapiens, UniProt P49674); parameters: Thermo Fisher SelectScreen kinase panel: Z'-LYTE and Adapta activity, LanthaScreen binding
T8 construct: gene CSNK1E
Method in brief: as §1

[14] = target: PAK1 (Homo sapiens, UniProt Q13153); parameters: Thermo Fisher SelectScreen kinase panel: Z'-LYTE and Adapta activity, LanthaScreen binding
Method in brief: as §1

[15] = target: NEK1 (Homo sapiens, UniProt Q96PY6); parameters: Thermo Fisher SelectScreen kinase panel: Z'-LYTE and Adapta activity, LanthaScreen binding
Method in brief: as §1

[16] = target: T9, Hyl (Homo sapiens, UniProt P42679); parameters: Thermo Fisher SelectScreen kinase panel: Z'-LYTE and Adapta activity, LanthaScreen binding
T9 construct: gene MATK
Method in brief: as §1

[17] = target: T10, TRKB (Homo sapiens, UniProt Q16620); parameters: Thermo Fisher SelectScreen kinase panel: Z'-LYTE and Adapta activity, LanthaScreen binding
T10 construct: gene NTRK2
Method in brief: as §1

[18] = target: DMPK (Homo sapiens, UniProt Q09013); parameters: Thermo Fisher SelectScreen kinase panel: Z'-LYTE and Adapta activity, LanthaScreen binding
Method in brief: as §1

[19] = target: EPHA1 (Homo sapiens, UniProt P21709); parameters: Thermo Fisher SelectScreen kinase panel: Z'-LYTE and Adapta activity, LanthaScreen binding
Method in brief: as §1

[20] = target: MARK3 (Homo sapiens, UniProt P27448); parameters: Thermo Fisher SelectScreen kinase panel: Z'-LYTE and Adapta activity, LanthaScreen binding
Method in brief: as §1

[21] = target: T11, MST3 (Homo sapiens, UniProt Q9Y6E0); parameters: Thermo Fisher SelectScreen kinase panel: Z'-LYTE and Adapta activity, LanthaScreen binding
T11 construct: gene STK24
Method in brief: as §1

[22] = target: BRSK1 (Homo sapiens, UniProt Q8TDC3); parameters: Thermo Fisher SelectScreen kinase panel: Z'-LYTE and Adapta activity, LanthaScreen binding
Method in brief: as §1

[23] = target: T12, PDK1(direct) (Homo sapiens, UniProt O15530); parameters: Thermo Fisher SelectScreen kinase panel: Z'-LYTE and Adapta activity, LanthaScreen binding
T12 construct: gene PDPK1; direct
Method in brief: as §1

Chain of GRK6 (P43250 whole entry): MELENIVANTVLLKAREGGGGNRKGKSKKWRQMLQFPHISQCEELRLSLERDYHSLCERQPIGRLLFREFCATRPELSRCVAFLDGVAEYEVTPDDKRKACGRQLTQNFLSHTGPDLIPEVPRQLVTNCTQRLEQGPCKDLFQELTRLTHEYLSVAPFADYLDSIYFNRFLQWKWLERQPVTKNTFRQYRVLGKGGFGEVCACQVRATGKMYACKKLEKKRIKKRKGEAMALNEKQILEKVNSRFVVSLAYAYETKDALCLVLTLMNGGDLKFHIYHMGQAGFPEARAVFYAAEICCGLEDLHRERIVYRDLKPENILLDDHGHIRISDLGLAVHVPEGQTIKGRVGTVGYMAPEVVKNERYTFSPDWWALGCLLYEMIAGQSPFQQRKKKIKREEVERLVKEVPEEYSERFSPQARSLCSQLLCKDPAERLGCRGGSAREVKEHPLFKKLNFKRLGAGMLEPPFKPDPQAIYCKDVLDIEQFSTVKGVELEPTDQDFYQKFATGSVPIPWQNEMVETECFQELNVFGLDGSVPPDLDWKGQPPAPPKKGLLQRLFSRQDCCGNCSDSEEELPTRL
Chain of BRSK1 (Q8TDC3 whole entry): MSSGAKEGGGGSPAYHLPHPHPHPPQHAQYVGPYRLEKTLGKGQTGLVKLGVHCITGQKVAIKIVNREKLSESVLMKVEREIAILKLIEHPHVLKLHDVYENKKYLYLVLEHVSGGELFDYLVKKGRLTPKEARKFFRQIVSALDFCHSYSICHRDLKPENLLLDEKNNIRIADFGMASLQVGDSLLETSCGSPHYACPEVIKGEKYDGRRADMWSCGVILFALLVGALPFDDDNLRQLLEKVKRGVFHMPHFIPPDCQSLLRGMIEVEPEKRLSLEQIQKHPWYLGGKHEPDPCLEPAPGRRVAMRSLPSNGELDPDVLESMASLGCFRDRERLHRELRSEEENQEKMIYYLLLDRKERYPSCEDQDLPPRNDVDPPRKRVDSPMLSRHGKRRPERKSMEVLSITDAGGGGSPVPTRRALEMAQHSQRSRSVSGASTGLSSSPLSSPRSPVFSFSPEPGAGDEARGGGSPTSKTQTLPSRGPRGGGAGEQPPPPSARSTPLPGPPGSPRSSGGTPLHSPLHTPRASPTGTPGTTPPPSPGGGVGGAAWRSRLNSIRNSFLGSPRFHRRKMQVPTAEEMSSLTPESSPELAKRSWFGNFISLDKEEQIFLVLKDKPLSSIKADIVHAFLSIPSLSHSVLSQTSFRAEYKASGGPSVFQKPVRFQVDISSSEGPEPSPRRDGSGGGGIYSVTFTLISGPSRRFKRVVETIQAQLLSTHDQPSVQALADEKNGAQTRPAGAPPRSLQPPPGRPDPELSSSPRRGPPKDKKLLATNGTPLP
T9 sequence (P42679 whole entry): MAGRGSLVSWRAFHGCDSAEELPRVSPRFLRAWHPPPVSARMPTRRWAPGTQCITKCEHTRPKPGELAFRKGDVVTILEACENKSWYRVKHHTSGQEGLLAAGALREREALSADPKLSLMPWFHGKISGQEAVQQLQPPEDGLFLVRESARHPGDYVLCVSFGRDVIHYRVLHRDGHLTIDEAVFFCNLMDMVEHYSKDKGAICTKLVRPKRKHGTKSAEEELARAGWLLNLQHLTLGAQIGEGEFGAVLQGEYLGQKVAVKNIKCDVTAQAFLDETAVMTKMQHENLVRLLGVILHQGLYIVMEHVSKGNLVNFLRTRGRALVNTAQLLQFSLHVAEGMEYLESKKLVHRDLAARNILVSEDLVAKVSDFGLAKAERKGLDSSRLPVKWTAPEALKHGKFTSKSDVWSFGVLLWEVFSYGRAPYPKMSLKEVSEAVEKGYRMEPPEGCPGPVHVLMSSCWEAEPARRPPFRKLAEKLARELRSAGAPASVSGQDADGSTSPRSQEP
Chain of MARK3 (P27448 whole entry): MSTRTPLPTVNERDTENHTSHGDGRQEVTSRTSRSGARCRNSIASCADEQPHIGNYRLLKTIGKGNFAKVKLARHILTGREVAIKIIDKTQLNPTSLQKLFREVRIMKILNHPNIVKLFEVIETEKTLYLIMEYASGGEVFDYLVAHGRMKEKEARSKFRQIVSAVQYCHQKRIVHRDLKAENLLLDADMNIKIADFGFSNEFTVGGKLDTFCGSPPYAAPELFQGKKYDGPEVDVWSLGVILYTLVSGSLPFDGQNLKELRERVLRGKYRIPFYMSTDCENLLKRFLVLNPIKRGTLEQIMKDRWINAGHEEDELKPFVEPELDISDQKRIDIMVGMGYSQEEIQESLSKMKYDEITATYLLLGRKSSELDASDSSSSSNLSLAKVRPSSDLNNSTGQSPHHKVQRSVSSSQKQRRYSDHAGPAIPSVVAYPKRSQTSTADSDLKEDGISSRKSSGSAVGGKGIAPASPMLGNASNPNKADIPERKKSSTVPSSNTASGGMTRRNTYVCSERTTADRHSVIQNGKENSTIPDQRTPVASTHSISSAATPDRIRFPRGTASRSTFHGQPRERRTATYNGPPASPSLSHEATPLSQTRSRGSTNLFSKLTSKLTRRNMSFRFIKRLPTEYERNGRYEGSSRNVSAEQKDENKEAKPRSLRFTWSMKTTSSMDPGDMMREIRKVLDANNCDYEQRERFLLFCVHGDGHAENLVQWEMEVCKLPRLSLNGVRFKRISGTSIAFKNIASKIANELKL
Chain of CDK1/cyclinB (P06493 whole entry): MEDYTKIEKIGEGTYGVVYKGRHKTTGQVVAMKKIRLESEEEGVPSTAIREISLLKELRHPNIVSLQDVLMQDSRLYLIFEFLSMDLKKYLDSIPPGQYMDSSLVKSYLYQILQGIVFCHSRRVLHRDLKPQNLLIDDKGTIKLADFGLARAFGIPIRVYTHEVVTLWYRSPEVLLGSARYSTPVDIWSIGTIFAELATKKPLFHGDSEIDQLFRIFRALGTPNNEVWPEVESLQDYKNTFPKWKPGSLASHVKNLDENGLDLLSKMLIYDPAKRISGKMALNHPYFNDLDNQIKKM
Chain of CDK1/cyclinB (P14635 whole entry partner): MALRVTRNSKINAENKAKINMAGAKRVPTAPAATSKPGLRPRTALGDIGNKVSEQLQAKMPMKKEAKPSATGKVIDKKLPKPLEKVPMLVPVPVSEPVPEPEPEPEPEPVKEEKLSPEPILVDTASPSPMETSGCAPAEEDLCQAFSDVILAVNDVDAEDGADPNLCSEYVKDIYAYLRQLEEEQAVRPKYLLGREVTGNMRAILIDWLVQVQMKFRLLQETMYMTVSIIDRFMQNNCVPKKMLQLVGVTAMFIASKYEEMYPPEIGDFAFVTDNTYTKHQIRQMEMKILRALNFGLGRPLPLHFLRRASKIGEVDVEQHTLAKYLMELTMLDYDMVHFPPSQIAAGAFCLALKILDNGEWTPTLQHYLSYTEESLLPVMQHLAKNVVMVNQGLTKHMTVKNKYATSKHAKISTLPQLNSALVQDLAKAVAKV
Chain of NEK1 (Q96PY6 whole entry): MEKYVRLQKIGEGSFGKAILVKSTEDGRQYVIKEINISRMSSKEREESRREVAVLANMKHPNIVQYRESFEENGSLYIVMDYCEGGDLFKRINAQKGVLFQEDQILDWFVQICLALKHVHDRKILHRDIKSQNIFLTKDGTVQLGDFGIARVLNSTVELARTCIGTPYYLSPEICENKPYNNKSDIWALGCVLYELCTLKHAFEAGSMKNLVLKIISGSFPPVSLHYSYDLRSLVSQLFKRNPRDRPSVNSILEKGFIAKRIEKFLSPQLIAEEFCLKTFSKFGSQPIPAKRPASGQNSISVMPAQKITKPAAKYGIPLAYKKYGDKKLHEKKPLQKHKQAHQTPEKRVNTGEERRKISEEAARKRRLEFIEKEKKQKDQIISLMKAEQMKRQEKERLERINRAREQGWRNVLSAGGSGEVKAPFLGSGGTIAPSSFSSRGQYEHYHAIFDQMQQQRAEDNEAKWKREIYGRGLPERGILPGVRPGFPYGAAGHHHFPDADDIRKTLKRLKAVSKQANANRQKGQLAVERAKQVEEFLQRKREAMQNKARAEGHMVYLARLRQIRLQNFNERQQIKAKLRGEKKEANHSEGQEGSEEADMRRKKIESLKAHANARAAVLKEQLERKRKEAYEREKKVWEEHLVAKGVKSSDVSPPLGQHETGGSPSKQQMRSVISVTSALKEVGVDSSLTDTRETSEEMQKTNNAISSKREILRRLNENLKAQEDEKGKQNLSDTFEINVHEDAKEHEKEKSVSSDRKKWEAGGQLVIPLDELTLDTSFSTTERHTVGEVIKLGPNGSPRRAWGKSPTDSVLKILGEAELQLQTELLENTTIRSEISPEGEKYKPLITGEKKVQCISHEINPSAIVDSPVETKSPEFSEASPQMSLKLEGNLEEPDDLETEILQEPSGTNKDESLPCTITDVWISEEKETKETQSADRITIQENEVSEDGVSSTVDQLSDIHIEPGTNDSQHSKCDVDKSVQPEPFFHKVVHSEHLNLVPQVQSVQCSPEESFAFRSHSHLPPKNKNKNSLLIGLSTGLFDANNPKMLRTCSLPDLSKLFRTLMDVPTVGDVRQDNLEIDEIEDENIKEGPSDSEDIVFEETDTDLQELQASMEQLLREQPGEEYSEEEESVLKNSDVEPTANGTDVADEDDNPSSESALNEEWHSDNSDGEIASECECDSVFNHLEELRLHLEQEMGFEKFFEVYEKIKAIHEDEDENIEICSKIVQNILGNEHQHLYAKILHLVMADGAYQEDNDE
T8 sequence (P49674 whole entry): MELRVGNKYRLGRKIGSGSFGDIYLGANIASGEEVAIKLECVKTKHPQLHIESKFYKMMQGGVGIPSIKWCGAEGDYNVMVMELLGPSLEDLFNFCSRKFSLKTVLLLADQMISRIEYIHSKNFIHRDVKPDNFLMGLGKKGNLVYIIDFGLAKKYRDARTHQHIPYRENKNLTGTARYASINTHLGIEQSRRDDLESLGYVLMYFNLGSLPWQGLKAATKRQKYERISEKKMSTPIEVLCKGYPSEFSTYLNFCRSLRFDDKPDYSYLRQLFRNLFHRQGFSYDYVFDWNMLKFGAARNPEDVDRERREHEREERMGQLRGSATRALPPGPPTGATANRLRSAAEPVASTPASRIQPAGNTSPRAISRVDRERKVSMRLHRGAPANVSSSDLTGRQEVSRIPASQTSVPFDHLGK

SMILES: COc1cc2c(cn1)N(C)C(=O)[C@@H](NC(=O)c1nc3n(n1)[C@H](c1ccccc1)CC3)CC2 [GNE684, (S)-N-((S)-7-methoxy-1-methyl-2-oxo-2,3,4,5-tetrahydro-1H-pyrido[3,4-b]azepin-3-yl)-5-phenyl-6,7-dihydro-5H-pyrrolo[1,2-b][1,2,4]triazole-2-carboxamide]
- inhibition at 10 µM [1]: 1%
- inhibition at 10 µM [2]: -7.5%
- inhibition at 10 µM [3]: 2.5%
- inhibition at 10 µM [4]: 3.5%
- inhibition at 10 µM [5]: 1%
- inhibition at 10 µM [6]: 4%
- inhibition at 10 µM [7]: 2%
- inhibition at 10 µM [8]: 10%
- inhibition at 10 µM [9]: 6.5%
- inhibition at 10 µM [10]: -0.5%
- inhibition at 10 µM [11]: 7%
- inhibition at 10 µM [12]: 3%
- inhibition at 10 µM [13]: 5%
- inhibition at 10 µM [14]: 2.5%
- inhibition at 10 µM [15]: 7.5%
- inhibition at 10 µM [16]: 1%
- inhibition at 10 µM [17]: -5%
- inhibition at 10 µM [18]: -3%
- inhibition at 10 µM [19]: 9.5%
- inhibition at 10 µM [20]: -2.5%
- inhibition at 10 µM [21]: 4%
- inhibition at 10 µM [22]: 2.5%
- inhibition at 10 µM [23]: 5%
